Test results published in patent publication US8012414B2, “Sterilization of drugs using supercritical carbon dioxide sterilant” (Novasterilis, priority 2007, dated 2011).

Test: State of micro-crystalline/powder drug after supercritical CO2 sterilization with peracetic acid additive
Assay type: physicochemical
Details: 1500 psi, 35° C., 180 minutes, Peracetic Acid 16 mL
Protocol: For these products, the input or flow of CO2 through valve 24 into the reactor pressure vessel 22 is regulated to 0.01 to 5 psi/second. Regulating the rate of pressurization is also intended to control mass flow (1000 mg/second) of CO2 into the reactor pressure vessel 22. In the initial fill, the valve 24 is opened and allowed to flow at the regulated rate using the ambient pressure of the CO2 supply from the gas cylinder 12. The CO2 supply pressure can range from 75 psi to approximately 900 psi or greater. Once the pressure in reactor pressure vessel 22 reaches equilibrium with the CO2 supply source pressure, the pumping of the CO2 using the carbon dioxide booster 16 begins. […] Once the reactor pressure vessel 22 reaches its operating pressure of 1500 psi, the process is allowed to continue through its normal path. Upon completion of the desired time period at the operating temperature and pressure, depressurization of the reactor pressure vessel 22 then occurs. […] Regulating the rate of depressurization is also intended to control of mass flow of CO2 out of the reactor pressure vessel 22. The rate of depressurization is controlled at this rate until the ambient pressure in the reactor pressure vessel 22 is zero or at equilibrium with the atmospheric pressure. Ambient conditions are generally zero psi and 25 degrees C. […]

Methyl-Prednisone
State of the Corticosteroid drug after sterilization (look and feel of powder) (CO2 pressurization 5 psi/second, depressurization 50 psi/second): unchanged | State of the Corticosteroid drug after sterilization (look and feel of powder) (CO2 pressurization 75 psi/second (unrestricted), depressurization 100 psi/second): changed
